Reference: US20230145868A1, “UREA INHIBITORS OF MICRO-RNA” (Board of Regents, The University of Texas System, priority 2020, published 2023)

Key:
[1] = system: human pre-miR-10b RNA hairpin; test: NMR detection of compound binding to miRNA
Method: The human pre-miR-10b RNA hairpin sequence (nucleotides 40-75, per miRbase) was transcribed enzymatically and purified using methods previously described. The NMR screening buffer consisted of 20 mM Bis-Tris-d19 at pH 6.5, 10 mM NaCl, 0.2% Tween-20, and 11.1 μM DSA as chemical shift reference (integrates to 100 μM), prepared in 99.99% D2O or 95%H2O/5%D2O. Each ligand was first dissolved in DMSO to a 10 mM stock concentration. Free ligand screening samples were prepared at a final DMSO concentration of […] at a concentration of 100 μM in NMR screening buffer. For RNA target detected experiments, the lyophilized RNA pellets were dissolved in DMSO-free NMR screening buffer and heated for 4 min at 90° C., then snap cooled for 5 min at −20° C. ^1D-^1H experiments for both ligand and RNA were collected using the Bruker “zgesgp” excitation sculpting pulse sequence to suppress background water signal. Data was collected with 64 scans and 16K data points. Data was processed using 16K zero points, then Fourier transformed followed by manual phase and baseline correction. 2D-^1H TOCSY experiments were collected using the Bruker “mlevesgpph” pulse sequence with excitation sculpting water suppression, data collected with 32 scans, 2K×512 data points, a recycle delay of 1.2 s, and spin-lock mixing time of 80 ms. […]

[2] = Microsomal stability assay, human; type: in vitro ADME; conditions: pH 7.4; human liver microsomes; 1 μM test compound; unit printed in b356 only
Method: The liver microsomal incubation mixture was composed of liver microsomes (with a concentration of 0.5 mg microsomal protein/ml), the test compound (1 μM), MgCl2 (3 mM), EDTA (1 mM) in potassium phosphate buffer (100 mM, pH 7.4). Control substrates used were Midazolam and Ketanserin. The reaction was initiated with the addition of an NADPH regeneration solution (1.3 mM NADPH) and maintained at 37° C. with shaking. At five sequential time points ranging from 0 to 45 min, aliquots of the mixture (50 μL) were removed and quenched with acetonitrile (100 μL) containing an internal standard control (imipramine) Samples were analyzed after vortexing and centrifugation by liquid chromatography-mass spectrometry (LC-MS/MS). The in vitro t1/2 was then calculated and clearance followed literature.

[3] = system: miR-16, miR-28, miR-182, miR-10a, miR-21, miR-155; test: RT-qPCR of other micro-RNAs (selectivity); type: cell-based, human; conditions: AGS and AsPC1 cell lines; normalized to U6
[4] = system: VEGF; test: Western blot, VEGF expression; type: cell-based, human; conditions: LN229 and U251 brain cancer cell lines
Method: Proteins are collected from cultured cells and lysed with 10× Lysis Buffer (Cell Signaling) freshly supplemented with a complete protease inhibitor cocktail and phosphatase inhibitors (Sigma). Bradford assay is used to measure protein concentration. Proteins are separated by polyacrylamide gel (Bio-rad) electrophoresis and were transferred to a 0.2 μm nitrocellulose membrane (Bio-rad). Quantification of protein expression was conducted using the image analysis software ImageJ.

[5] = system: U251, LN229, AGS, AsPC1 cell lines; test: Cell viability IC50 dose-response curves; type: cell-based, human; conditions: majority of cell lines (U251, LN229, AGS, AsPC1); values not given
Method: (§1) IC50 dose-response curves were determined using the cell proliferation assay system. Briefly, 5,000 or 10,000 cells of each cell line were plated in 96-well microculture plates in replicates of either 4 or 6. When cells became adherent, either 5 or 10 sequentially decreasing doses of the small molecule miRNA inhibitor were diluted into new media and added to individual wells. After either 24 or 48 hours, of a tetrazolium salt such as MTS, MTT, or WST-8 was added to each well at the same time of day as treatment and incubated for either 2 or 3 h at 37° C. The OD, measuring at the appropriate wavelength for the dye, was read at on a microplate spectrophotometer.

[6] = system: U251 cell line; test: Annexin V/PI apoptosis assay by flow cytometry, U251; type: cell-based, human; conditions: 48 h
Method: In 6-well plates, 1×10^5 cells/mL were added into each well. After 24 h, sequential concentrations of DMSO and 4 based were administered and the plates were incubated for 48 h. The supernatant and adherent cells were collected and centrifugated. Each dose was done in triplicate, with each sample composing two wells. For apoptosis analysis, the supernatant was discarded after centrifugation and the pellet washed with PBS twice. Then, BD Annexin V-FITC/PI used to stain the cells for analysis via flow cytometry on the Gallios machine. For cell cycle analysis, after washing with PBS, cells were fixed with ethanol and incubated. They, were treated with RNase enzyme and analyzed.

[7] = system: U251 cell line; test: MTS proliferation assay, U251; type: cell-based, human; conditions: 5 and 10 μM, beginning at 48 h of treatment
Method: as §1
Cell proliferation is determined using a colorimetric assay. A tetrazolium salt such as MTS, MTT, or WST-8 is reduced by dehydrogenase activities in cells to give a formazan dye, which is soluble in the tissue culture media. The amount of the formazan dye (generated by the activities of dehydrogenases in cells, and directly proportional to the number of living cells) is measured after 3 h of incubation. The OD is read at 450 nm on a microplate spectrophotometer and growth values (%) are calculated as (OD treated cells/OD untreated cells)×100. The experiments are performed in triplicate. […] The OD is read at 450/550 nm on a microplate spectrophotometer, after one to seven days of the treatment. […]

ligand detected 1D-1H line broadening (peak signal free vs bound) ([1]; ligand with pre-miR-10b sequence, methyl protons, indicative of direct binding): large decrease in peak signal
CLint scaled at 1 μM [2]: 14.9 mL/min/kg
half-life at 1 μM [2]: 1.93 h
SMILES: Cc1ccc(F)c(NC(=O)Nc2ccc(-c3cccc4cn[nH]c34)cc2)c1 [Example 4, 1-(4-(1H-indazol-7-yl)phenyl)-3-(2-fluoro-5-methylphenyl)urea]
target detect 2D 1H-1H TOCSY, binding to pre-miR-10b ([1]; 50 μM pre-miR-10b titrated with 100 μM, largest shifts U6, U7, U8, U26, C27, C29, U33): directly binds to the hairpin structure of precursor miR-10b
selectivity for miR-10b over other micro-RNAs [3]: selectivity of compound 4 for miR-10b becomes apparent
VEGF expression (Western blot) [4]: low to very slight variations
IC50 at 48 h compared with IC50 at 24 h [5]: lower than the corresponding IC50 value at 24 h
increase in total apoptotic cells compared to control ([6]; 5 μM): approximately 4.5 fold
total apoptotic cells at 10 μM compared with 5 μM ([6]; 10 μM): approximately the same
proliferation (MTS), every 24 h over 96 h [7]: significant difference in proliferation
